Measured values reported in PMC5888870 (2018).

Legend:
[1] = test system: 5'-biotin-TEG KRAS (DNA, G4) AGGGCGGTGTGGGAAGAGGGAAGAGGGGGAGGCAG; experiment: SPR; details: 30 mM KCl; 10 mM Tris pH 6.6, 3% DMSO, 0.01% Tween-20; no binding at 20 μM
[2] = test system: KRAS G4 (DNA, G4) AGGGCGGTGTGGGAAGAGGGAAGAGGGGGAGGCAG; experiment: CD thermal melt; details: 30 mM KCl; 10 mM Tris pH 6.6, 1% DMSO; 10 μM DNA, 40 μM compound
[3] = test system: shortened KRAS oligonucleotide (DNA, G4) AGGGCGGTGTGGGAATAGGGAA; experiment: 1H NMR titration; details: 50 mM KCl, 100 μM DNA
[4] = test system: Alexafluor647-KRAS (DNA, G4) AGGGCGGTGTGGGAAGAGGGAAGAGGGGGAGGCAG; experiment: fluorescence intensity titration; details: 50 mM KCl, 25 mM Tris pH 6.4, 2-3% DMSO, room temperature; for KDapp: apparent
[5] = test system: 5'-biotin-TEG KRAS (DNA, G4) AGGGCGGTGTGGGAAGAGGGAAGAGGGGGAGGCAG; experiment: SPR, steady state; details: 30 mM KCl; 10 mM Tris pH 6.6, 3% DMSO, 0.01% Tween-20; apparent; text b35 prints 12.0 ± 0.5
[6] = test system: shortened KRAS oligonucleotide (DNA, G4) AGGGCGGTGTGGGAATAGGGAA; experiment: WaterLOGSY NMR; details: 50 mM KCl, 25 mM Tris-d11 pH 6.6, 10% DMSO-d6, 293 K, 100 μM compound, 1 μM DNA
[7] = test system: dsDNA (DNA, duplex) CAATCGGATCGAATTCGATCCGATTG; experiment: CD thermal melt; details: 30 mM KCl; 10 mM Tris pH 6.6, 1% DMSO; 10 μM DNA, 40 μM compound
[8] = test system: KRAS G4 (DNA, G4) AGGGCGGTGTGGGAAGAGGGAAGAGGGGGAGGCAG; experiment: 13C NMR; details: 50 mM KCl; 25 mM Tris-d11 pH 6.6, 10% DMSO-d6, 293 K
[9] = test system: 5'-biotin-TEG KRAS (DNA, G4) AGGGCGGTGTGGGAAGAGGGAAGAGGGGGAGGCAG; experiment: SPR, Langmuir kinetic fit; details: 30 mM KCl; 10 mM Tris pH 6.6, 3% DMSO, 0.01% Tween-20
[10] = test system: Alexafluor647-AKTIP (RNA, G4) GGGGUGGGGCGGGGCGGGG; experiment: small molecule microarray; details: 100 mM KCl; PBST, room temperature, 500 nM RNA; immobilised compound
[11] = test system: Alexafluor647-RB1 (DNA, G4) CGGGGGGTTTTGGGCGGC; experiment: small molecule microarray; details: 100 mM KCl; PBST, room temperature, 500 nM DNA; immobilised compound
[12] = test system: Alexafluor647-BCl2 (DNA, G4) AGGGGCGGGCGCGGGAGGAAGGGGGCGGGA; experiment: small molecule microarray; details: 100 mM KCl; PBST, room temperature, 500 nM DNA; immobilised compound
[13] = test system: Alexafluor647-KRAS (DNA, G4) AGGGCGGTGTGGGAAGAGGGAAGAGGGGGAGGCAG; experiment: small molecule microarray; details: 100 mM KCl; PBST, room temperature, 500 nM DNA; immobilised compound
[14] = test system: Alexafluor647-MYB (DNA, G4) GGAGGAGGAGGTCACGGAGGAGGAGGAGAAGGAGGAGGAGGA; experiment: small molecule microarray; details: 100 mM KCl; PBST, room temperature, 500 nM DNA; immobilised compound
[15] = test system: Alexafluor647-MYC (DNA, G4) AGGGTGGGGAGGGTGGGG; experiment: small molecule microarray; details: 100 mM KCl; PBST, room temperature, 500 nM DNA; immobilised compound
[16] = test system: Alexafluor647-VEGF (DNA, G4) CGGGGCGGGCCGGGGGCGGGGT; experiment: small molecule microarray; details: 100 mM KCl; PBST, room temperature, 500 nM DNA; immobilised compound
[17] = test system: Alexafluor647-c-KIT (DNA, G4) AGGGAGGGCGCTGGGAGGAGGG; experiment: small molecule microarray; details: 100 mM KCl; PBST, room temperature, 500 nM DNA; immobilised compound

**Q.** With `CC(C)NC(=N)NC(=N)Nc1ccc(Cl)cc1` as the compound, how does the KD [1] read?
**A.** Its KD is greater than 20 µM.

**Q.** What about the ΔTm [2] of the same compound?
**A.** Its ΔTm is less than 1 °C.

**Q.** And the binding ([3]; 25 mM Tris-d11 pH 6.6, 10% DMSO-d6, 293 K, weak, nonspecific)?
**A.** Its binding is “weak”.

**Q.** What about the KDapp ([4]; only minimal fluorescence changes) of the same compound?
**A.** Its KDapp is greater than 200 µM.

**Q.** How did the KDapp [5] turn out when `CCCCC(CC)CNC(=N)NC(=N)NCCCCCCNC(=N)NC(=N)NCC(CC)CCCC` (stereo not shown) was run?
**A.** Its KDapp is 12.1 ± 0.5 µM.

**Q.** What about the ΔTm [2] of the same compound?
**A.** The ΔTm was 7.1 ± 0.6 °C.

**Q.** What about the binding ([3]; 25 mM Tris-d11 pH 6.6, 10% DMSO-d6, 293 K, moderate, nonspecific) of the same compound?
**A.** Its binding is “yes”.

**Q.** And the KDapp ([4]; 50 nM DNA)?
**A.** The KDapp was 19.3 ± 11.0 µM.

**Q.** For `CN[C@H](C(=O)O)C(C)C`, which binding ([6]; internal control) is on record?
**A.** The binding was “no”.

**Q.** Which binding [7] does the source give for `N=C(NCCCCCCNC(=N)NC(=N)Nc1ccc(Cl)cc1)NC(=N)Nc1ccc(Cl)cc1` here?
**A.** The binding was “no”.

**Q.** And the binding [8]?
**A.** The binding was “yes”.

**Q.** And the KD [9]?
**A.** The KD was 1.1 ± 0.5 µM.

**Q.** What about the binding [6] of the same compound?
**A.** The binding was “yes”.

**Q.** And the ΔTm [2]?
**A.** The ΔTm was 13.0 ± 0.7 °C.

**Q.** And the binding ([3]; 25 mM Tris-d11 pH 6.6, 10% D2O, 5% DMSO-d6, 293 K)?
**A.** Its binding is “yes”.

**Q.** And the KD ([4]; 50 nM DNA)?
**A.** The KD was 0.0055 ± 0.0029 mM.

**Q.** Which results are given for `NCCOc1cc(C(=O)Nc2cc(OCCN)c3ccccc3n2)nc(C(=O)Nc2cc(OCCN)c3ccccc3n2)c1`?
**A.** binding [10]: yes; binding [11]: yes; binding [12]: yes; binding [13]: yes; binding [14]: yes; binding [15]: yes; ΔTm [2]: 31.6 ± 2.6 °C; binding [16]: yes; binding [17]: yes
